ChEMBL document CHEMBL5291721, “A preclinical secondary pharmacology resource illuminates target-adverse drug reaction associations of marketed drugs” (Nat Commun, 2023)

Assays:
[1] = molecular target: T1, Cholecystokinin receptor type A (Homo sapiens, UniProt P32238)
T1 sequence (P32238 whole entry): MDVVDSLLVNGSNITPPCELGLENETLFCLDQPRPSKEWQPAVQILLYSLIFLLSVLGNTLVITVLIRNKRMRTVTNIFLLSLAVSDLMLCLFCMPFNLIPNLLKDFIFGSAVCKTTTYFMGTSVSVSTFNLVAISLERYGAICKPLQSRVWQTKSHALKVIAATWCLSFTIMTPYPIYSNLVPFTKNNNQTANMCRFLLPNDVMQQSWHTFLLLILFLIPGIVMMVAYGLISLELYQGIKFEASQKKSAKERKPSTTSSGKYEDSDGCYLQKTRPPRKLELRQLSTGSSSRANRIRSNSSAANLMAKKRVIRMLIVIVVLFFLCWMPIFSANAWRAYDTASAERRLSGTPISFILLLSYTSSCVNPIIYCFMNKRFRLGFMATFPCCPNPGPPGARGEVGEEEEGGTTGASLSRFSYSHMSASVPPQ

[2] = molecular target: Motilin receptor (Homo sapiens, UniProt O43193)
Sequence of Motilin receptor (O43193 whole entry): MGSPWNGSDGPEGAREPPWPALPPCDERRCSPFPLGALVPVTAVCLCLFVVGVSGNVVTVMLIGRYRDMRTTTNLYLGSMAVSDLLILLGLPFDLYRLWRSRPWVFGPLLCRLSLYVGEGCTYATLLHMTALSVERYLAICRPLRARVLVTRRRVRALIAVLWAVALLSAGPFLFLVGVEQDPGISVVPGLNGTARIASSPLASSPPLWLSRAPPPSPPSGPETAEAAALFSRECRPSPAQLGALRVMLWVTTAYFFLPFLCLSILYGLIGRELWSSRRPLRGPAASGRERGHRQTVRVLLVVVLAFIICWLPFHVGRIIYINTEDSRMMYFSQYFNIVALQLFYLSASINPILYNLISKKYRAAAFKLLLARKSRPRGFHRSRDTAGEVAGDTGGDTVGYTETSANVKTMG

[3] = molecular target: T2, B2 bradykinin receptor (Homo sapiens, UniProt P30411)
T2 sequence (P30411 whole entry): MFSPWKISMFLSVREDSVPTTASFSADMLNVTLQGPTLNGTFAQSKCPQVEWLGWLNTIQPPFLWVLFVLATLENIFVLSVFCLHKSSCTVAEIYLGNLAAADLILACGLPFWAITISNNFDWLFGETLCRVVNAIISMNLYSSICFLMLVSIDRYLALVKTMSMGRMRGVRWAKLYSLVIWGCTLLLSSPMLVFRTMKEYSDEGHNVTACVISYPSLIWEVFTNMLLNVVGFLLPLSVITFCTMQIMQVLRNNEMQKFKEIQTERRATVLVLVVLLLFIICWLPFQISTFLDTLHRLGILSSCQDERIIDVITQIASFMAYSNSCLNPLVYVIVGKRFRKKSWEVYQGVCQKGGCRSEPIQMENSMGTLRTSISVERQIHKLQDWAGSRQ

[4] = molecular target: cGMP-inhibited 3',5'-cyclic phosphodiesterase 3A (Homo sapiens, UniProt Q14432); assay type: functional
Sequence of cGMP-inhibited 3',5'-cyclic phosphodiesterase 3A (Q14432 whole entry): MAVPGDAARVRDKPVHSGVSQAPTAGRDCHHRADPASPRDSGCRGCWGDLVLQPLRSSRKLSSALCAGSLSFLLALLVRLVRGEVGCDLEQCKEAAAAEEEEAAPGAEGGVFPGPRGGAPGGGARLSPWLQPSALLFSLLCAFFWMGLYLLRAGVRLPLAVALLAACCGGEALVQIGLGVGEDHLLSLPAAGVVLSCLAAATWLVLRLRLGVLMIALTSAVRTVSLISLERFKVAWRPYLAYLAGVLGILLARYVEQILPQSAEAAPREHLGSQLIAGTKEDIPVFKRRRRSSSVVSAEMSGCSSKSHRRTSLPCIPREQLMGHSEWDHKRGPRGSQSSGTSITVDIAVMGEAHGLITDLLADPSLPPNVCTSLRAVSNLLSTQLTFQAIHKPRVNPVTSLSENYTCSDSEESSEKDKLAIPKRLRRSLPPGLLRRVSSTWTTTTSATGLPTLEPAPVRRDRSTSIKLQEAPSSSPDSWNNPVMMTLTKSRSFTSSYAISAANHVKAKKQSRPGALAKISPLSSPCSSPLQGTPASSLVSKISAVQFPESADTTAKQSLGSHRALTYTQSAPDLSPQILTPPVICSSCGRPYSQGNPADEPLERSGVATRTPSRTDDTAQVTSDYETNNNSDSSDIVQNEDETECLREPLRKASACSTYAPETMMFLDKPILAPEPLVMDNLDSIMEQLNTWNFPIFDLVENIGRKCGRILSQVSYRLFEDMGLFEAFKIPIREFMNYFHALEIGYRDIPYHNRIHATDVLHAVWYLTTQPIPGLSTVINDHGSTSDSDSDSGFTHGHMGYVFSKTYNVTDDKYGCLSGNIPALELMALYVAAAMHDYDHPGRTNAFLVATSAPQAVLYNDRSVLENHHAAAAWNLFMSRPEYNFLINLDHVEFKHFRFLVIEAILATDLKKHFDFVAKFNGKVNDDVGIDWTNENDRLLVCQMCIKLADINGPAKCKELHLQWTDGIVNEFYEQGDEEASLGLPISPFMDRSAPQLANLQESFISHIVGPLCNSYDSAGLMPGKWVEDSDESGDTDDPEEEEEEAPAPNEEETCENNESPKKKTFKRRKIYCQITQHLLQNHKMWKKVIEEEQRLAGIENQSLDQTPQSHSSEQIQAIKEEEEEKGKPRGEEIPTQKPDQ

[5] = molecular target: 3',5'-cyclic-AMP phosphodiesterase 4D (Homo sapiens, UniProt Q08499); assay type: functional
Sequence of 3',5'-cyclic-AMP phosphodiesterase 4D (Q08499 whole entry): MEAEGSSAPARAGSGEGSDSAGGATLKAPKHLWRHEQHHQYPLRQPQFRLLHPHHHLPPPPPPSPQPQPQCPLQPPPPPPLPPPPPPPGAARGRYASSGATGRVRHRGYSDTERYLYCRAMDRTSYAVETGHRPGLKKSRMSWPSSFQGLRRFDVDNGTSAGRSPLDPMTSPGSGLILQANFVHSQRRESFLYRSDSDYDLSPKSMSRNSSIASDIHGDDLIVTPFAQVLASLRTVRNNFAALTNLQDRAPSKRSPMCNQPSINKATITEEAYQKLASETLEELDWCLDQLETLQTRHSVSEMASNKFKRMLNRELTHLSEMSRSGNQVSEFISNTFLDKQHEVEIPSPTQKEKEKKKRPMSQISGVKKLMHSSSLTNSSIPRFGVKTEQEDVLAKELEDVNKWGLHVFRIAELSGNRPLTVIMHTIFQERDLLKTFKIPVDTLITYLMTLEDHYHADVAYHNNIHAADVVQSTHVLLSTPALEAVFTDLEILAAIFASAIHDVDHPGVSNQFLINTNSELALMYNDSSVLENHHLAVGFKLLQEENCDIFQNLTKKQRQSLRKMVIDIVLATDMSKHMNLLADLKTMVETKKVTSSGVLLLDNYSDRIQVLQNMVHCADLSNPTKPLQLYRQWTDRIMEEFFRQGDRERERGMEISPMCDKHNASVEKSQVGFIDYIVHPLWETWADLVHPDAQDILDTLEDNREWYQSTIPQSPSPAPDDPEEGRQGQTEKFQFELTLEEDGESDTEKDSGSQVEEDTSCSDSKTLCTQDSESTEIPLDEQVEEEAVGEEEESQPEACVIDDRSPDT

[6] = molecular target: D(3) dopamine receptor (Homo sapiens, UniProt P35462)
Sequence of D(3) dopamine receptor (P35462 whole entry): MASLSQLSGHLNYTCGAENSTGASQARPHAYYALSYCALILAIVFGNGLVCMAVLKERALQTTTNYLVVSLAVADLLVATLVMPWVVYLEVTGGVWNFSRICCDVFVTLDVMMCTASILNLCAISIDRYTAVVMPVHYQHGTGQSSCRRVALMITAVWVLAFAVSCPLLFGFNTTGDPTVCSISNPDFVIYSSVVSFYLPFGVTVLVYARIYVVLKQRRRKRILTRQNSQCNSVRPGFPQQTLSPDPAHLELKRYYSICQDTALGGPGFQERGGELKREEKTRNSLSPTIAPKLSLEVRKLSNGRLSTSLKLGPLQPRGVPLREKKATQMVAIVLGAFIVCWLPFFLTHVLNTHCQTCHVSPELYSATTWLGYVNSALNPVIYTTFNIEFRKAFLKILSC

[7] = molecular target: T3, Amine oxidase [flavin-containing] A (Homo sapiens, UniProt P21397); assay type: functional
T3 sequence (P21397 whole entry): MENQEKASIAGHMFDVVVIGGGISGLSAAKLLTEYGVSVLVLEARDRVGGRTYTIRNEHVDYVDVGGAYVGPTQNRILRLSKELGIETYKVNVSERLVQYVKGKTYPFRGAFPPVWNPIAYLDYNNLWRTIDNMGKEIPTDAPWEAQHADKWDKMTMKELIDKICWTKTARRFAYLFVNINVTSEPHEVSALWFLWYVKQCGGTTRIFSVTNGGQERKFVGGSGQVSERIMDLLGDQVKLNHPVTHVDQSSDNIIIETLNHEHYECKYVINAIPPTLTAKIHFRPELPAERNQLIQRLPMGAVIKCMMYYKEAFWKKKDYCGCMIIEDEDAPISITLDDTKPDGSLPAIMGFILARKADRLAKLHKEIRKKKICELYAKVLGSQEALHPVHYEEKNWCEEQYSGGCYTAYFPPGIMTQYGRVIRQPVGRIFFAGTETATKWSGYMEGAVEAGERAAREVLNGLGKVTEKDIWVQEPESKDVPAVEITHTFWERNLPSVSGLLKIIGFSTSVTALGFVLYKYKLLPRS

[8] = molecular target: T4, Equilibrative nucleoside transporter 1 (Homo sapiens, UniProt Q99808)
T4 sequence (Q99808 whole entry): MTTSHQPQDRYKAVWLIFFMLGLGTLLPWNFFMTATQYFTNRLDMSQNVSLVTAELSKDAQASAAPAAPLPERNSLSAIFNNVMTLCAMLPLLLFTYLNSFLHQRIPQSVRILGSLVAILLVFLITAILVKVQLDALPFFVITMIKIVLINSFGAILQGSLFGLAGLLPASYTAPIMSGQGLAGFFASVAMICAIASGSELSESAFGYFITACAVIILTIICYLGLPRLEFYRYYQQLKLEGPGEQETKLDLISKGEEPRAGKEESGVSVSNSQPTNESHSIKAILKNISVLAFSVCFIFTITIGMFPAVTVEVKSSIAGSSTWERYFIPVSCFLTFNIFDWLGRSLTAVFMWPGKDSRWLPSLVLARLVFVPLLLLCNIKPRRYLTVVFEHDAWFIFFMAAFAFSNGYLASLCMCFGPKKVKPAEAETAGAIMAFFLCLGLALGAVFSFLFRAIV

[9] = molecular target: Sodium-dependent noradrenaline transporter (Homo sapiens, UniProt P23975)
Sequence of Sodium-dependent noradrenaline transporter (P23975 whole entry): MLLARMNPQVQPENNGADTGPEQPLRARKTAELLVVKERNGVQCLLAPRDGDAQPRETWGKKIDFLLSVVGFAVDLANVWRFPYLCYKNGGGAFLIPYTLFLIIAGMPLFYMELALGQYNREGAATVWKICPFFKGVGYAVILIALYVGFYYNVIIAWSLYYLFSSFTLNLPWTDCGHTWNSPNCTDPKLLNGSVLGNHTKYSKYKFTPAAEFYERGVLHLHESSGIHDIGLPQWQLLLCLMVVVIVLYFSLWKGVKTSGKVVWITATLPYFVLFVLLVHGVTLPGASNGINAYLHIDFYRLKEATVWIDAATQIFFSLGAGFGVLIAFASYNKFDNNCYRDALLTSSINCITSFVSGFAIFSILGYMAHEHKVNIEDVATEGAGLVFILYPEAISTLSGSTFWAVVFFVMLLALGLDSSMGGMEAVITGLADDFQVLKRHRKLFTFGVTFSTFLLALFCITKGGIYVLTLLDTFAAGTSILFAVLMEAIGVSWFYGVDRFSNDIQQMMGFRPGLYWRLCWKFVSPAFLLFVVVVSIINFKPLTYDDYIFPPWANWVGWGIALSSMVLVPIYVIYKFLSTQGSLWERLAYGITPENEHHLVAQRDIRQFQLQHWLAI

[10] = molecular target: T5, Alpha-2C adrenergic receptor (Homo sapiens, UniProt P18825); assay type: functional
T5 sequence (P18825 whole entry): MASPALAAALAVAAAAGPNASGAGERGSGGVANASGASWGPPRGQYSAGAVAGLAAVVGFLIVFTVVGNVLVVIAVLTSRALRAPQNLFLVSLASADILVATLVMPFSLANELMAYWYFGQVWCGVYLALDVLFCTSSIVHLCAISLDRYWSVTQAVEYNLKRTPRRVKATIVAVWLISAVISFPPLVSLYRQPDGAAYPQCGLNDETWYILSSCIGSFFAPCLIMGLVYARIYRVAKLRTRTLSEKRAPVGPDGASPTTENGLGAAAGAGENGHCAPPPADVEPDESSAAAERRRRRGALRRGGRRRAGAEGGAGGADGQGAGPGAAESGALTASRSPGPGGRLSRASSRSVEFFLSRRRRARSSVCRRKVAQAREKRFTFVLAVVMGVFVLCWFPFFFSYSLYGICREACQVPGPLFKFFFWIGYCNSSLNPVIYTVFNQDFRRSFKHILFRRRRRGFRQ

[11] = molecular target: T6, Adenosine receptor A1 (Homo sapiens, UniProt P30542)
T6 sequence (P30542 whole entry): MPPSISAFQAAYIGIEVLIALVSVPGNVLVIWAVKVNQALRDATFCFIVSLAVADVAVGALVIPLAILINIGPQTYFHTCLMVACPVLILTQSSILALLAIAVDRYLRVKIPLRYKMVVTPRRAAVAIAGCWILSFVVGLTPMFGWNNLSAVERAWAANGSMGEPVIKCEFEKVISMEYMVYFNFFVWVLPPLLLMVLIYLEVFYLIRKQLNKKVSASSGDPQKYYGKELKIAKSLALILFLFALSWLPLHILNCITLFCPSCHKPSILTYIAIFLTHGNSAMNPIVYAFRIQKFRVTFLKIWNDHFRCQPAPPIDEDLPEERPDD
Also: assay procedure not described here.

| SMILES | AC50 [1] [µM] | AC50 [2] [µM] | AC50 [3] [µM] | AC50 [4] [µM] | AC50 [5] [µM] | AC50 [6] [µM] | AC50 [7] [µM] | AC50 [8] [µM] | AC50 [9] [µM] | AC50 [10] [µM] | AC50 [11] [µM] |
| --- | --- | --- | --- | --- | --- | --- | --- | --- | --- | --- | --- |
| CNC1=Nc2ccc(Cl)cc2C(c2ccccc2)=[N+]([O-])C1 [CHLORDIAZEPOXIDE] | > 30 | > 10 | > 30 | > 30 | > 10 | > 30 | > 10 | > 30 | > 30 | > 10 | > 30 |
| CC[C@@H]([C@H](C)O)n1ncn(-c2ccc(N3CCN(c4ccc(OC[C@@H]5CO[C@@](Cn6cncn6)(c6ccc(F)cc6F)C5)cc4)CC3)cc2)c1=O [POSACONAZOLE] | – | – | – | > 30 | > 30 | > 30 | > 30 | – | > 30 | > 30 | – |
| O=[N+]([O-])c1ccc(O)c2ncccc12 [NITROXOLINE] | – | – | – | > 30 | 3.2 | 5.8 | > 30 | – | – | 7.1 | – |
| Oc1ccc2c(c1)CC[C@H](c1ccccc1)[C@@H]2c1ccc(OCCN2CCCC2)cc1 [LASOFOXIFENE] | > 3 | 2.9 | > 30 | > 30 | 15 | 2.2 | > 30 | > 30 | 2 | – | > 30 |
| CCC(C)C1(CC)C(=O)NC(=O)NC1=O (stereo not given) [BUTABARBITAL] | > 30 | > 30 | > 30 | > 30 | > 30 | – | > 30 | > 30 | > 30 | > 30 | > 30 |
| CN1CCN(C2=Nc3ccccc3Oc3ccc(Cl)cc32)CC1 [LOXAPINE] | > 30 | > 10 | > 30 | > 30 | – | 0.032 | > 10 | > 30 | 1.53 | – | > 30 |
| CN(C)CCCNc1c2ccccc2nc2cccc([N+](=O)[O-])c12 [NITRACRINE] | > 30 | > 30 | > 30 | > 30 | 21 | 9.8 | 19 | – | > 30 | 5.2 | > 30 |
| CC(C)NCC(O)c1ccc(O)c(O)c1 (stereo not given) [ISOPROTERENOL] | > 30 | > 10 | > 30 | 18 | > 30 | > 30 | > 10 | > 30 | > 30 | – | > 30 |
| CNCc1ccc(-c2[nH]c3cc(F)cc4c3c2CCNC4=O)cc1 [RUCAPARIB] | > 30 | > 30 | > 30 | > 30 | 10 | – | > 10 | > 30 | 20.7 | > 10 | > 30 |
| Cc1cc2cc3c(C)cc(=O)oc3c(C)c2o1 [TRIOXSALEN] | > 10 | > 10 | > 10 | > 30 | – | > 30 | 0.72 | > 10 | > 10 | > 10 | > 30 |
| COc1cc(N)c(Cl)cc1C(=O)NC1CCN(Cc2ccccc2)CC1 [CLEBOPRIDE] | > 30 | > 30 | > 30 | 7.7 | 2.9 | – | > 30 | > 30 | 15 | 2.1 | > 30 |
| Cc1cccc(N2CC(CO)OC2=O)c1 (stereo not given) [TOLOXATONE] | > 30 | > 30 | > 30 | > 30 | > 30 | > 30 | – | – | – | > 30 | > 30 |
| CN1CCC(=C2c3ccccc3CCc3cccnc32)CC1 [AZATADINE] | > 30 | > 10 | > 30 | > 30 | > 30 | > 10 | > 10 | > 30 | > 30 | – | > 30 |
| Cc1cc(C(C)(C)C)cc(C)c1CC1=NCCN1 [XYLOMETAZOLINE] | > 30 | > 30 | > 30 | > 30 | > 30 | 3.87 | > 30 | – | > 30 | 0.239 | > 30 |
| O=C(O)c1cn(C2CC2)c2cc(N3CCNCC3)c(F)cc2c1=O [CIPROFLOXACIN] | > 30 | > 10 | > 30 | > 30 | > 30 | – | – | > 30 | – | – | > 30 |
| CCCN[C@H]1CCc2nc(N)sc2C1 [PRAMIPEXOLE] | > 30 | > 10 | > 30 | > 30 | > 30 | – | > 10 | > 30 | > 30 | > 10 | > 30 |
| Cc1cnc(C(=O)NCCc2ccc(S(=O)(=O)NC(=O)NC3CCCCC3)cc2)cn1 [GLIPIZIDE] | > 30 | > 10 | > 30 | > 30 | > 30 | – | > 10 | > 30 | – | > 10 | > 30 |
| CCC(C)C(CC)C(N)=O (stereo not given) [VALNOCTAMIDE] | > 30 | > 30 | > 30 | > 30 | > 30 | > 30 | > 30 | – | > 30 | > 30 | > 30 |
